From US6723717B1, “Sulfur-containing thyroxane derivatives and their use as hair growth promotors” (The University of Texas Southwestern Medical Center, priority 1999, dated 2004)

Test system: male Sprague Dawley rats
Assay: Cardiotoxicity Assay (heart-to-body weight ratio)
Format: in vivo, rat
Conditions: 250 μg/kg subcutaneously once daily for 28 days, hearts weighed on day 30
Text: The cardiotoxicity assay measures the potential of a test compound to adversely affect the cardiovascular system. As thyroid hormone (T3) damages the cardiovascular system, the heart enlarges. See, e.g., Gomberg-Maitland et al., “Thyroid hormone and Cardiovascular Disease”, American Heart Journal, Vol. 135(2), pp. 187-196 (1998); Klein and Ojamaa, “Thyroid Hormone and the Cardiovascular System”, Current Opinion in Endocrinology and Diabetes, Vol. 4, pp.341-346 (1997); and Klemperer et al., “Thyroid Hormone Therapy and Cardiovascular Disease”, Progress in Cardiovascular Diseases, Vol. 37 (4), pp. 329-336 (1996). This increases the weight of the heart relative to whole body weight. The cardiotoxicity assay herein below is used to test compounds for potentially adverse cardiac effects by measuring their effect on the heart-to-body weight ratio.
Two groups each of six male Sprague Dawley rats (Harlan Sprague Dawley, Inc., Indianapolis, Ind.) (each weighing from approximately 220 grams to 235 grams) are utilized. The first group is a vehicle control group and the second group is a test compound group. The length of the assay is 30 days, with treatment of vehicle or test compound in vehicle daily for 28 of those days as described below.
Prior to initiation of the assay, each rat is allowed to acclimate to standard environmental conditions for 5 days. […]

## N[C@@H](Cc1cc(I)c(Oc2cc(I)c(O)c(I)c2)c(I)c1)C(=O)O [Example T4, thyroxine]
  cardiac-sparing (index C = RT/RV, heart/body weight ratio of test group over vehicle group; C less than 1.3 = cardiac-sparing): not cardiac-sparine
